Laboratory results: patent publication US8415376B2, “Inhibitors of PI3 kinase” (Amgen Inc., priority 2008, dated 2013)

Tests used:
[1] = test system: phosphorylation of Akt at Ser473; assay: Cell-based phospho-Akt Ser473 assay (HCT116 cell); conditions: HCT 116 human colon carcinoma cells, IGF-1 stimulated; average
Source text: Cell-Based Phospho-Akt Ser473 Assay (HCT116 Cell)
This assay determines the ability of a compound to inhibit the phosphorylation of […] in Akt using a MSD based sandwich immunoassay (Meso Scale Detection, Meso Scale Discovery (MSD), Gaithersburg, Md.). HCT 116 human colon carcinoma cell lines can be grown in McCoy's 5A growth medium (GIBCO, Carlsbad, Calif.) containing 10% FBS (GIBCO, Carlsbad, Calif.) and X1 Penicillin-streptomycin-glutamine (GIBCO, Carlsbad, Calif.). Prior to the assay, cells can be detached from the culture flask with trypsin, and re-suspended in complete media to give a final concentration of 1.6×10^5 cells per mL. Aliquots (100 μl) of the HCT116 cell suspension can be seeded into each well of a 96 well tissue culture plate to give a final density of 16,000 cells per well. Cells can then be incubated overnight at 37° C.
The following day the cells can be treated with serially diluted test compounds and incubated for 2 hours at 37° C. The culture media on the HCT 116 cells can be replaced with 189 μL McCoys media, supplemented with 0.1% BSA (ICN Biomedicals, Inc., Costa Mesa, Calif.). Compounds can be prepared as either 10 mM or 0.5 mM stock solutions in DMSO, and serially diluted 3 fold in a 10-point dose-response curve to give final concentrations that are 200-fold greater than the desired final test concentration. Aliquots (1 μL) of serially-diluted compounds can be transferred to 96 well tissue culture plates containing the HCT 116 cells. […] As a maximum response control, wells can contain 0.5% DMSO in place of compound. The plates can be mixed at 700 rpm for 2 min to ensure even distribution of the test compound and incubated for 2 hours at 37° C. Cells can then be stimulated with insulin-like growth factor 1 (Sigma, St Louis, Mo.) at final concentration of 100 ng/ml for 15 minutes at 37° C. The media can then be removed and the cells treated with 80 μL cell-lysis buffer (MSD) containing a cocktail of protease and phosphatase inhibitors for one hour at 4° C.
25 μL Cell lysate can then be transferred to pre-blocked MSD assay plates pre-coated with a capture antibody specific for Akt, and the plates can be incubated for 2 hours at room temperature. The cell lysates can then be removed and plates can then be washed four times with 200 μl per well of Tris wash buffer (500 mM Tris, PH 7.5, 1.5 M NaCl, 0.2% Tween-20). Subsequently cells can be incubated for 1 hour at room temperature with a 25 μL solution containing the detection antibody, anti-phospho Akt (Ser 473) labeled with an electrochemiluminescent compound (Meso Scale Discovery SULPHO-TAG™ label, MSD, Gaithersburg, Md.). The detection antibody can be removed and plates can then be washed four times with 200 μL per well of Tris wash buffer. An aliquot of 150 μL of diluted MSD read buffer can then be applied to each well, and the electrochemiluminescent signal can be measured using a MSD SECTOR™ plate reader (Meso Scale Discovery, Gaithersburg, Md.). This instrument measures the intensity of emitted light to determine a quantitative measure of phosphorylated Akt in each well. The dose-response data obtained with each compound can be analyzed and the IC50 inhibition of Akt phosphorylation at Ser473 can be calculated.
Activity data for the compounds tested in the PI3K cell based Akt assay is provided in Table 1 under the column heading HCT116 Cell.

[2] = biological target: T1, PI3Kβ (Homo sapiens, UniProt P42338); assay: In vitro PI3 kinase enzyme assay (PI3K ATP loss), beta; format: biochemical; conditions: average if run more than once
T1 construct: Full length p110 subunits of PI3K α, β and δ, N-terminally labeled with polyHis tag; polyHis (N); made in house; host or cells: Sf9 insect cells (baculovirus)
T1 sequence (P42338 whole entry): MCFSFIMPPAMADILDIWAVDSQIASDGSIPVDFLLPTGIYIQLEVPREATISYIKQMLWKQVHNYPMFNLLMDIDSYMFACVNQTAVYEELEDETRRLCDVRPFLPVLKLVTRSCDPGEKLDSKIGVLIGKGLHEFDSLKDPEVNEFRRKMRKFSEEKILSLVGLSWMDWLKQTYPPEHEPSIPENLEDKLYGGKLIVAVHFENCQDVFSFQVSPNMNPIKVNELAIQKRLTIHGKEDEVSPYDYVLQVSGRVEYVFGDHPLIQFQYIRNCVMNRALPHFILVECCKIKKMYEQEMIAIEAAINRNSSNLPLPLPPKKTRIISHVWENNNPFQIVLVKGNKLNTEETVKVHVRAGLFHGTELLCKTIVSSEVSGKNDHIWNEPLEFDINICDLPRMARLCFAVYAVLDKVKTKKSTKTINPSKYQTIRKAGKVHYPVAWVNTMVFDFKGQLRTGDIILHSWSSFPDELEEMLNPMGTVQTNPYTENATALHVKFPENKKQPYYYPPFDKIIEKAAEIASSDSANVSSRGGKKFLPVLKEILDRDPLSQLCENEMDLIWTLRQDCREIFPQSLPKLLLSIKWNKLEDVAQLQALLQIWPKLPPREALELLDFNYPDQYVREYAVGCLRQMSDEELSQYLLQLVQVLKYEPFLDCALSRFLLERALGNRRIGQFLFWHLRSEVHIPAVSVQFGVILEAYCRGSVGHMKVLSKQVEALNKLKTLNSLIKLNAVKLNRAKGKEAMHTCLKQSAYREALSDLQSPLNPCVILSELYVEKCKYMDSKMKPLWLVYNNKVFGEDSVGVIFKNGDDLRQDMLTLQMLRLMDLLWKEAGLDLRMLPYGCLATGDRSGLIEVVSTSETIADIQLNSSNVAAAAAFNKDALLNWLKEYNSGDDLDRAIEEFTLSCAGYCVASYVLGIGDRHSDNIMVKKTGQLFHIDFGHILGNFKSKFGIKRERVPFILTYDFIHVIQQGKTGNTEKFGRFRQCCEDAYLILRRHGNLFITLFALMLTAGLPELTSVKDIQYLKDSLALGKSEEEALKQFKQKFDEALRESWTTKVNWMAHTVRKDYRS
T1 sequence (P27986 whole entry partner): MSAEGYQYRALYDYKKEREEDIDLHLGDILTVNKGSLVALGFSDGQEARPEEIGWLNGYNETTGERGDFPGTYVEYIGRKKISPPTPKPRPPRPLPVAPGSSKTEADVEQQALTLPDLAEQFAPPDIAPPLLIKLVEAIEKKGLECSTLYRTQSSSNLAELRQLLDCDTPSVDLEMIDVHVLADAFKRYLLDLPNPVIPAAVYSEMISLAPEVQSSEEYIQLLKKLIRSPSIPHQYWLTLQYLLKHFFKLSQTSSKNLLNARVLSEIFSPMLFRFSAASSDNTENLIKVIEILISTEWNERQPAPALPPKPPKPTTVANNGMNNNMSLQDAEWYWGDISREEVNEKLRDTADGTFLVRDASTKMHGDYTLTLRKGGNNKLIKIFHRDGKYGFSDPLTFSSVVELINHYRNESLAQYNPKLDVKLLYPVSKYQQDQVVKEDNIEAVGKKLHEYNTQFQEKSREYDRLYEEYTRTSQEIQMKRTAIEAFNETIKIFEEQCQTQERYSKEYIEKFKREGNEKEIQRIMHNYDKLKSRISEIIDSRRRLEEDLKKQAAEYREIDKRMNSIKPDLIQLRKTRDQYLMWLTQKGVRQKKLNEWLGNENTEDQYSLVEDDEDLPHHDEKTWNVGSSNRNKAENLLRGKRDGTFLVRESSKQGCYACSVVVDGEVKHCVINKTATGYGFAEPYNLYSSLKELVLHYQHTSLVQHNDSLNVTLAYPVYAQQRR
Description: Full length p110 subunits of PI3K α, β and δ, N-terminally labeled with polyHis tag, can be co-expressed with p85 with Baculo virus expression vectors in sf9 insect cells. P110/p85 heterodimers can be purified by sequential Ni-NTA, Q-HP, Superdex-100 chromatography. Purified α, β and δ isozymes can be stored at −20° C. in 20 mM Tris, pH 8, 0.2M NaCl, 50% glycerol, 5 mM DTT, 2 mM Na cholate. […] The γ isozyme can be purified by sequential Ni-NTA, Superdex-200, Q-HP chromatography. The γ isozyme can be stored frozen at −80° C. in NaH2PO4, pH 8, 0.2M NaCl, 1% ethylene glycol, 2 mM β-mercaptoethanol.
In Vitro PI3 Kinase Enzyme Assays (PI3K Atploss)
PI3K enzyme assays (alpha, beta, delta and gamma) can be performed in 25 μL with the above final concentrations of components in white polyproplyene plates. Phosphatidyl inositol phosphoacceptor, PtdIns(4,5)P2 (eg. P4508) can be obtained from Echelon Biosciences, Salt Lake City, Utah. […] Test compounds can be dissolved in DMSO and diluted with three-fold serial dilutions. The compound in DMSO (1 μL) may be added per test well, and the inhibition relative to reactions containing no compound, with and without enzyme can be determined After assay incubation at RT, the reaction can be stopped and residual ATP can be determined by addition of an equal volume of a commercial ATP bioluminescence kit (Perkin Elmer EasyLite, Perkin Elmer, Waltham, Mass.) according to the manufacturer's instructions, and detected using an Analyst GT luminometer.

[3] = biological target: T2, mTOR (Homo sapiens, UniProt P42345); assay: In vitro mTOR assay (Lanthascreen); format: biochemical; conditions: average if run more than once
T2 construct: purchased Invitrogen (Carlsbad, Calif.)
T2 sequence (P42345 1360-2549 limits assumed): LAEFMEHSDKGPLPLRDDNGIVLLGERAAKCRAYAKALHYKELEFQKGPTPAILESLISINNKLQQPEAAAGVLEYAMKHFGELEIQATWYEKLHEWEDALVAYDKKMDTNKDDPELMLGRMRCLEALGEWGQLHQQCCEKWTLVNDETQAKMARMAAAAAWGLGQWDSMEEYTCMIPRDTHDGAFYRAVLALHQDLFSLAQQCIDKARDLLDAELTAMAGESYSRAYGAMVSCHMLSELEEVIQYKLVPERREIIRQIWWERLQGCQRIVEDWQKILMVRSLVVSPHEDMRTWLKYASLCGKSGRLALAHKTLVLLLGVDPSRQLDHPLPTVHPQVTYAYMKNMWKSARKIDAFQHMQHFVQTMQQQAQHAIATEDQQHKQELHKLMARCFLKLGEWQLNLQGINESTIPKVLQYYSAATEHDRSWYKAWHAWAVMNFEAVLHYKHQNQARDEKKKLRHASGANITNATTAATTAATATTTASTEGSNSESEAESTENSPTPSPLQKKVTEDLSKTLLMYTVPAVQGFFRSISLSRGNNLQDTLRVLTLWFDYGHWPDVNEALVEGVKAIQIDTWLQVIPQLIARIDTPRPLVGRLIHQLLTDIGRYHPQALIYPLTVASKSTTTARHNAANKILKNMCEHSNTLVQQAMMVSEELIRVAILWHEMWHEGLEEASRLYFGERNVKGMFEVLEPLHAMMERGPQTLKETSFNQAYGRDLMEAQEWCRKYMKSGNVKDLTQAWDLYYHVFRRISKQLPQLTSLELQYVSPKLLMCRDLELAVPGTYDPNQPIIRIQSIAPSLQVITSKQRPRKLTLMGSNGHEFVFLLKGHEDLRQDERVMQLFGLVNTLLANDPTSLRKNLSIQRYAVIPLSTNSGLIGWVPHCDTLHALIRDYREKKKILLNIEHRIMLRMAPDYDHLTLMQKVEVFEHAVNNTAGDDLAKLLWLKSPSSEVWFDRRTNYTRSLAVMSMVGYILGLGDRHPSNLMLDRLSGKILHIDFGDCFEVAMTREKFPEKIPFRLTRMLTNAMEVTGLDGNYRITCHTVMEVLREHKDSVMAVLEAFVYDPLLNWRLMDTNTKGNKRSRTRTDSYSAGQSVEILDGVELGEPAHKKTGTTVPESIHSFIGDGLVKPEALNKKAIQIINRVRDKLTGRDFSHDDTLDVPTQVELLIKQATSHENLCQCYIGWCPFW
Source text: The Invitrogen (Carlsbad, Calif.) mammalian target of rapamycin (mTOR) Lanthascreen assay can be used to quantitate mTOR kinase activity in an in vitro setting. Active mTOR phosphorylates eukaryotic translation initiation factor 4E binding protein 1 (4E-BP1) on residue threonine 46. This phosphorylation event can be detected with a phospho-specific terbium (Tb) labeled Ab, in turn bringing the Tb label in close proximity to the GFP tagged 4E-BP1 and allowing for time-resolved fluorescence resonance energy transfer (TR-FRET), which correlates 4E-BP1 phosphorylation levels with mTOR kinase activity.
Enzyme reaction buffer can be prepared in deionized water containing 50 mM HEPES (pH 7.5), 0.01% Polysorbate 20, 1 mM EGTA, and 10 mM MnCl2.
Dilutions of the compound to be tested can be prepared in 96-well polypropylene plates (Fisher Scientific, Waltham, Mass.). One row represents a 10-point dose of compound diluted 1:3 in enzyme reaction buffer and 20% dimethyl sulfoxide (DMSO). The top concentration for all compounds is 36 μM. Wells 6 and 12 can serve as the no compound (DMSO only) and high compound controls.
An mTOR substrate solution can prepared in enzyme reaction buffer containing 1600 nM green fluorescent protein tagged eukaryotic translation initiation factor 4E binding protein 1 (GFP-4E-BP1) (Invitrogen, Carlsbad, Calif.) and 28 uM adenosine triphosphate (ATP) (Calbiochem, Gibbstown, N.J.).
mTOR enzyme (Invitrogen, Carlsbad, Calif.) can be diluted in enzyme reaction buffer to a working concentration of 100 ng/mL.
The enzyme assay can be run in 384 well low volume assay plates (Corning, Corning, N.Y.). 2.5 uL of substrate solution containing GFP-4E-BP1 and ATP can be added to appropriate wells in the assay plate followed by 2.5 μL of compound dilutions. 5 μL of appropriately diluted mTOR enzyme can be added and the reaction allowed to proceed for 1 hour at room temperature. Final reagent concentrations in the enzyme assay are 50 ng/mL mTOR, 400 nM GFP-4E-BP1, and 7 μM ATP.
The enzyme assay can be terminated upon the addition of 10 μL of 20 mM EDTA and 4 nM Tb-labeled anti-phospho-4E-BP1 [T46] antibody (Invitrogen, Carlsbad, Calif.). The assay plate can then be incubated at room temperature for 1 hour and results read on a Tecan Safire II plate reader (Tecan, Männedorf, Switzerland).

Row | SMILES | IC50 [1] [µM] | IC50 [2] [µM] | IC50 [3] [µM]
1 | O=S(=O)(Nc1cc(-c2ccc3nccc(N4CCOCC4)c3c2)cnc1Cl)c1ccc(F)cc1 [Example 1, N-(2-chloro-5-(4-(4-morpholinyl)-6-quinolinyl)-3-pyridinyl)-4-fluorobenzenesulfonamide] | 0.0174 |  | 
2 | O=S(=O)(Nc1cc(-c2ccc3nccc(Cl)c3c2)cnc1Cl)c1ccc(F)cc1 [Example 2, N-(2-chloro-5-(4-chloro-6-quinolinyl)-3-pyridinyl)-4-fluorobenzenesulfonamide] | 0.109 | 0.0093 | 
3 | O=S(=O)(Nc1cc(-c2ccc3nccnc3c2)cnc1Cl)c1ccc(F)cc1 [Example 6, N-(2-chloro-5-(6-quinoxalinyl)-3-pyridinyl)-4-fluorobenzenesulfonamide] | 1.59 | 0.0254 | 
4 | O=S(=O)(Nc1cc(-c2ccc3ncc(N4CCOCC4)nc3c2)cnc1Cl)c1ccc(F)cc1 [Example 20, N-(2-chloro-5-(3-(4-morpholinyl)-6-quinoxalinyl)-3-pyridinyl)-4-fluorobenzenesulfonamide] | 0.0062 |  | 
5 | O=S(=O)(Nc1cc(-c2ccc3nccc(N4CCCCC4)c3c2)cnc1Cl)c1ccc(F)cc1 [Example 24, N-(2-chloro-5-(4-(1-piperidinyl)-6-quinolinyl)-3-pyridinyl)-4-fluorobenzenesulfonamid] | 0.159 | 0.0184 | 
6 | CC(C)N1CCN(c2ccnc3ccc(-c4cnc(Cl)c(NS(=O)(=O)c5ccc(F)cc5)c4)cc23)CC1 [Example 25, N-(2-chloro-5-(4-(4-(1-methylethyl)-1-piperazinyl)-6-quinolinyl)-3-pyridinyl)-4-fluorobenzenesulfonamide] | 0.0189 | 0.0119 | 
7 | COCCOc1ccnc2ccc(-c3cnc(Cl)c(NS(=O)(=O)c4ccc(F)cc4)c3)cc12 [Example 31, N-(2-chloro-5-(4-(2-methoxyethoxy)-6-quinolinyl)-3-pyridinyl)-4-fluorobenzenesulfonamide] | 0.0252 | 0.0144 | 
8 | COc1ncccc1-c1ccnc2ccc(-c3cnc(Cl)c(NS(=O)(=O)c4ccc(F)cc4)c3)cc12 [Example 35, N-(2-chloro-5-(4-(2-methoxy-3-pyridinyl)-6-quinolinyl)-3-pyridinyl)-4-fluorobenzenesulfonamide] | 0.0548 | 0.0212 | 
9 | O=S(=O)(Nc1cc(-c2ccc3ncccc3n2)cnc1Cl)c1ccc(F)cc1 [Example 41, N-(2-chloro-5-(1,5-naphthyridin-2-yl)-3-pyridinyl)-4-fluorobenzenesulfonamide] | 0.629 | 0.0597 | 
10 | COCCN(C)c1cnc2ccc(-c3cnc(Cl)c(NS(=O)(=O)c4ccc(F)cc4)c3)cc2n1 [Example 55, N-(2-chloro-5-(3-((2-methoxyethyl)(methyl)amino)-6-quinoxalinyl)-3-pyridinyl)-4-fluorobenzenesulfonamide] | 0.064 | 0.0207 | 
11 | O=S(=O)(Nc1cc(-c2ccc3ncc(NCCN4CCCCC4)nc3c2)cnc1Cl)c1ccc(F)cc1 [Example 61, N-(2-chloro-5-(3-((2-(1-piperidinyl)ethyl)amino)-6-quinoxalinyl)-3-pyridinyl)-4-fluorobenzenesulfonamide] | 0.0515 | 0.0155 | 
12 | O=S(=O)(Nc1cc(-c2ccc3ncc(N4C[C@H]5CC[C@H](CC5)C4)nc3c2)cnc1Cl)c1ccc(F)cc1 [Example 62, N-(5-(3-(3-azabicyclo[3.2.2]non-3-yl)-6-quinoxalinyl)-2-chloro-3-pyridinyl)-4-fluorobenzenesulfonamide] | 0.263 | 0.343 | 
13 | O=S(=O)(Nc1cc(-c2ccc3ncc(NCCc4ccccc4)nc3c2)cnc1Cl)c1ccc(F)cc1 [Example 64, N-(2-chloro-5-(3-((2-phenylethyl)amino)-6-quinoxalinyl)-3-pyridinyl)-4-fluorobenzenesulfonamide] | 0.188 | 0.0597 | 
14 | CN(Cc1ccccc1)c1cnc2ccc(-c3cnc(Cl)c(NS(=O)(=O)c4ccc(F)cc4)c3)cc2n1 [Example 65, N-(5-(3-(benzyl(methyl)amino)-6-quinoxalinyl)-2-chloro-3-pyridinyl)-4-fluorobenzenesulfonamide] | 0.279 | 0.0303 | 
15 | COC1CCN(c2cnc3ccc(-c4cnc(Cl)c(NS(=O)(=O)c5ccc(F)cc5)c4)cc3n2)CC1 [Example 69, N-(2-chloro-5-(3-(4-methoxy-1-piperidinyl)-6-quinoxalinyl)-3-pyridinyl)-4-fluorobenzenesulfonamide] | 0.0526 | 0.0344 | 
16 | O=S(=O)(Nc1cc(-c2ccc3ncc(NCC4CCCCC4)nc3c2)cnc1Cl)c1ccc(F)cc1 [Example 70, N-(2-chloro-5-(3-((cyclohexylmethyl)amino)-6-quinoxalinyl)-3-pyridinyl)-4-fluorobenzenesulfonamide] | 0.151 | 0.0532 | 
17 | COCCNc1cnc2ccc(-c3cnc(Cl)c(NS(=O)(=O)c4ccc(F)cc4)c3)cc2n1 [Example 73, N-(2-chloro-5-(3-((2-methoxyethyl)amino)-6-quinoxalinyl)-3-pyridinyl)-4-fluorobenzenesulfonamide] | 0.0595 | 0.0334 | 
18 | COc1nc(-c2cnc(Cl)c(NS(=O)(=O)c3ccc(F)cc3)c2)cc2cccnc12 [Example 76, N-(2-Chloro-5-(8-methoxy-1,7-naphthyridin-6-yl)pyridin-3-yl)-4-fluorobenzenesulfonamide] | 0.806 |  | 
19 | CN(C)c1ccnc2ccc(-c3cnc(Cl)c(NS(=O)(=O)c4ccc(F)cc4)c3)cc12 [Example 97, N-(2-chloro-5-(4-(dimethylamino)-6-quinolinyl)-3-pyridinyl)-4-fluorobenzenesulfonamide] |  |  | 0.111
20 | COCCNc1ccnc2ccc(-c3cnc(Cl)c(NS(=O)(=O)c4ccc(F)cc4)c3)cc12 [Example 98, N-(2-chloro-5-(4-((2-methoxyethyl)amino)-6-quinolinyl)-3-pyridinyl)-4-fluorobenzenesulfonamide] |  |  | 1.16
